From article PMC5045383 (Oncotarget, 2016)

Assays:
MV4-11 [1] = test: Colony formation (clonogenic) assay; type: cell-based, human; details: MV4-11, 15 days
Procedure: (§1) In brief, 1 mL of 3% agarose combined with 1 mL MOLM-13, MOLM-14, MV4-11, PF-382, U937, HL-60 growth media was used as the bottom agar in a 6-well plate. […] Cells were maintained in a humidified 5% CO2 incubator at 37°C for 15 days. On the 15th day, the numbers of colonies in each well were counted and each measurement was performed in triplicate.

PF382 = test: Colony formation (clonogenic) assay; type: cell-based, human; details: PF382, 15 days
Procedure: as §1

MOLM14 [2] = test: Colony formation (clonogenic) assay; type: cell-based, human; details: MOLM14, 15 days
Procedure: as §1

U937 = test: Colony formation (clonogenic) assay; type: cell-based, human; details: U937, 15 days
Procedure: as §1

MOLM13 = test: Colony formation (clonogenic) assay; type: cell-based, human; details: MOLM13, 15 days
Procedure: as §1

HL-60 = test: Colony formation (clonogenic) assay; type: cell-based, human; details: HL-60, 15 days
Procedure: as §1

MV4-11 [3] = test: Cell cycle analysis (PI, flow cytometry); type: cell-based, human; details: 24 hours
Procedure: (§2) The cells were fixed in 70% cold ethanol and incubated at −20°C overnight, then stained with PI/RNase staining buffer (BD Pharmingen). Flow cytometry was performed using a FACS Calibur (BD), and results were analyzed by ModFit software.

MOLM14 [4] = test: Cell cycle analysis (PI, flow cytometry); type: cell-based, human; details: 24 hours
Procedure: as §2

MOLM-14 xenograft tumor = MOLM-14 xenograft tumor model; type: in vivo, Balb/c-nu mice; details: daily oral gavage, MOLM14 xenograft
Source text: Five weeks old female Balb/c-nu mice were purchased from the Shanghai Experimental Center, Chinese Science Academy (Shanghai, China). All animals were housed in a specific pathogen-free facility and used according to the animal care regulations of Hefei Institutes of Physical Science Chinese Academy of Sciences. Prior to implantation, cells were harvested during exponential growth. 10 million MOLM-14 cells in 1640 were formulated as a 1:1 mixture with Matrigel (BD Biosciences) and injected into the subcutaneous space on the right flank of Balb/c-nu mice. Daily oral administration was initiated when MOLM-14 tumors had reached a size of 200 to 400 mm^3. Animals were then randomized into treatment groups of 10 mice each for efficacy studies. […] Tumor growth was measured daily after A674563 treatment. Tumor volumes were calculated as follows: tumor volume (mm^3) = [(W^2 × L)/2] in which width (W) is defined as the smaller of the two measurements and length (L) is defined as the larger of the two measurements.

FLT3-ITD-D835Y = test: Auto-phosphorylation of FLT3 in transformed BaF3 isogenic cells; type: cell-based
Source text: (§3) The following antibodies were purchased from Cell Signaling Technology (Danvers, MA): FLT3 (8F2) Rabbit mAb (#3462), Phospho-FLT3 (Tyr589/591) (30D4) Rabbit mAb (#3464), NF-κB p65 (D14E12) XP® Rabbit mAb (#8242), Phospho-NF-κB p65 (Ser536) (93H1) Rabbit mAb (#3033), Stat5 Antibody (#9363), Phospho-Stat5 (Tyr694) (C71E5) Rabbit mAb (#9314), c-Myc (D84C12) XP® Rabbit mAb (#5605), Akt (pan) (C67E7) Rabbit mAb (#4691), Phospho-Akt (Thr308) (244F9) Rabbit mAb (#4056), Phospho-Akt (Ser473) (D9E) XP® Rabbit mAb (#4060), p44/42 MAPK (Erk1/2) (137F5) Rabbit mAb (#4695), Phospho-p44/42 MAPK (Erk1/2) (Thr202/Tyr204) (D13.14.4E) XP® Rabbit mAb (#4370), GAPDH (D16H11) XP® Rabbit mAb, PARP (46D11) rabbit mAb (#9532), Caspase-3 (8G10) rabbit mAb (#9665), GSK-3β (27C10) Rabbit mAb (#9315), Phospho-GSK-3β (Ser9) (5B3) Rabbit mAb (#9323), FoxO1 (C29H4) Rabbit mAb (#2880), Phospho-FoxO1 (Thr24)/FoxO3a (Thr32)/FoxO4 (Thr28) (4G6) Rabbit mAb (#2599), PRAS40 (D23C7) XP® Rabbit mAb (#2691), Phospho-PRAS40 (Thr246) (C77D7) Rabbit mAb (#2997), 4E-BP1 (#9644), 4E-BP1 (53H11) Rabbit mAb (#9644), p70 S6 Kinase (49D7) Rabbit mAb (#2708), Phospho-p70 S6 Kinase (Thr389) (108D2) Rabbit mAb (#9234). Antibodies were used at 1:1000. Protein lysate preparation and immunoblotting were carried out as previously described.
(§4) Retroviral constructs for BaF3-FLT3 mutants were made based on the pMSCVpuro (Clontech) backbone. For TEL-FLT3 vector, the first 1 kb of human TEL gene with an artificial myristoylation sequence ([…]) was cloned into pMSCVpuro retroviral vector, followed by a 3xFLAG tag sequence and a stop codon. Then the kinase domain coding sequence of FLT3 was inserted in-frame between TEL and 3× FLAG sequences. For full-length expression vectors, the coding sequences of FLT3 variants were directly cloned in pMSCVpuro vector with a 3X FLAG tag at the C-terminal end. All mutagenesis studies were performed using the QuikChange Site-Directed Mutagenesis Kit (Stratagene) following the manufacturer's instructions. […]

FLT3-ITD = test: as above; type: cell-based
Source text: as §3, §4

FLT3-ITD-F691L = test: as above; type: cell-based
Source text: as §3, §4

FLT3-ITD kinase = target: FLT3-ITD kinase; parameters: method as in PMID 22037378; details: cited from earlier work

SMILES: Cc1[nH]nc2ccc(-c3cncc(OC[C@@H](N)Cc4ccccc4)c3)cc12 [A674563]
- EC50 (MV4-11 [1]): 92 nM
- EC50 (PF382): 861 nM
- EC50 (MOLM14 [2]): 61 nM
- EC50 (U937): 505 nM
- EC50 (MOLM13): 170 nM
- EC50 (HL-60): 387 nM
- %G0–G1 (MV4-11 [3]; MV4-11, 0.3 μM): 68.69%
- %G2–M (MV4-11 [3]; MV4-11, 0.3 μM): 2.61%
- %S (MV4-11 [3]; MV4-11, 0.3 μM): 28.7%
- %G0–G1 (MV4-11 [3]; MV4-11, 3 μM): 68.62%
- %G2–M (MV4-11 [3]; MV4-11, 3 μM): 8.56%
- %S (MV4-11 [3]; MV4-11, 3 μM): 22.82%
- %G0–G1 (MOLM14 [4]; MOLM14, 0.3 μM): 47.08%
- %G2–M (MOLM14 [4]; MOLM14, 0.3 μM): 11.27%
- %S (MOLM14 [4]; MOLM14, 0.3 μM): 41.65%
- %G0–G1 (MOLM14 [4]; MOLM14, 3 μM): 53.87%
- %G2–M (MOLM14 [4]; MOLM14, 3 μM): 22.65%
- %S (MOLM14 [4]; MOLM14, 3 μM): 23.49%
- tumor growth inhibition (TGI) (MOLM-14 xenograft tumor; 25 mg/kg/d): 45%
- tumor growth inhibition (TGI) (MOLM-14 xenograft tumor; 50 mg/kg/day): 78%
- EC50 (FLT3-ITD-D835Y): 1260 nM
- EC50 (FLT3-ITD): 85 nM
- EC50 (FLT3-ITD-F691L): 400 nM
- Kd (FLT3-ITD kinase): 83 nM
